What was measured:
Format in all cases: functional
Staphylococcus aureus [1] = assay: Antibiofilm activity against methicillin-resistant Staphylococcus aureus ATCC BAA-44 at 5 uM relative to control
Staphylococcus aureus [2] = assay: Antibiofilm activity against methicillin-resistant Staphylococcus aureus ATCC BAA-44 at 40 uM relative to control
Staphylococcus aureus [3] = assay: Antimicrobial activity against methicillin-resistant Staphylococcus aureus ATCC 33591 assessed as reduction in microbial growth
Staphylococcus aureus [4] = assay: Antimicrobial activity against methicillin-sensitive Staphylococcus aureus ATCC 25923 assessed as reduction in microbial growth at pH 9.0
Staphylococcus aureus [5] = assay: Antibiofilm activity against methicillin-sensitive Staphylococcus aureus ATCC 25923 assessed as biofilm eradication at pH 9.0

Compound	Activity (Staphylococcus aureus [1]) [%]	Activity (Staphylococcus aureus [2]) [%]	MIC (Staphylococcus aureus [3]) [µg/mL]	MIC (Staphylococcus aureus [4]) [µg/mL]	MBEC (Staphylococcus aureus [5]) [µg/mL]
CCC1C(c2ccc(C(F)(F)F)cc2)=C(O)C(=O)N1c1ccccc1 (stereo not given)	5	85	16	16	128
CCC1C(c2ccc(C(F)(F)F)cc2)=C(O)C(=O)N1Cc1ccc(OC)cc1OC (stereo not given)	63	57	> 128	> 256	>512
CCCCCCN1C(=O)C(O)=C(c2ccc(C(F)(F)F)cc2)C1CC (stereo not given)	59	85	16	32	512
CCC1C(c2ccc(C(F)(F)F)cc2)=C(O)C(=O)N1c1ccc(OC)c(OC)c1 (stereo not given)	17	70	> 128	64	>512
CCC1C(c2ccc(C(F)(F)F)cc2)=C(O)C(=O)N1c1ccccn1 (stereo not given)	4	31	> 128	32	128
CCC1C(c2ccc(C(F)(F)F)cc2)=C(O)C(=O)N1CCC(C)C (stereo not given)	47	43	> 128	64	>512
CC(C)C1C(c2ccc(C(F)(F)F)cc2)=C(O)C(=O)N1c1ccccc1 (stereo not given)	-5	3	> 128	16	512
CC1C(c2ccc(C(F)(F)F)cc2)=C(O)C(=O)N1c1ccccc1 (stereo not given)	-26	72	32	16	256
O=C1C(O)=C(c2ccc(C(F)(F)F)cc2)CN1c1ccccc1	26	8	> 128	> 256	512
CCCCCCCN1C(=O)C(O)=C(c2ccc(C(F)(F)F)cc2)C1CC (stereo not given)	64	59	64	32	>512
CCC1C(c2ccc(C(F)(F)F)cc2)=C(O)C(=O)N1c1ccc(Br)cc1 (stereo not given)	34	72	32	32	128
CCC1C(c2ccc(C(F)(F)F)cc2)=C(O)C(=O)N1c1ccc(F)cc1 (stereo not given)	22	81	16	16	128
CCCCCN1C(=O)C(O)=C(c2ccc(C(F)(F)F)cc2)C1CC (stereo not given)	58	63	16	32	256
CCC1C(c2ccc(C(F)(F)F)cc2)=C(O)C(=O)N1Cc1cccs1 (stereo not given)	54	79	> 128	32	128
CCC1C(c2ccc(C(F)(F)F)cc2)=C(O)C(=O)N1CCc1ccccc1 (stereo not given)	23	45	> 128	64	256

Source: ChEMBL document CHEMBL5584216, “Expanded library of novel 2,3-pyrrolidinedione analogues exhibit anti-biofilm activity” (2024)
